Series [1] in a line: Acute toxicity. To be noted: mouse, in vivo, ip. The text has this: The test drugs were used in the form of a solution or suspension in a saline solution or a 0.3% carboxymethyl cellulose-containing saline solution.
The test system of series [2] is L-1210 ascites cells. Description: Effect on L-1210 leukemia (i): intraperitoneal inoculation, mean survival days. It counts as in vivo, BDF1-strain mice. On the procedure: (i) L-1210 ascites cells (1×10^5 cells/head) were inoculated intraperitoneally into BDF1 -strain mice (female, 6 weeks old, each group consisting of 4 mice), and after 24 hours, the intraperitoneal administration of a test drug was started and effected once a day. The effect thereof was judged from the mean survival days. The test drug was used in the form of a solution or suspension in a saline solution or a 0.3% carboxymethyl cellulose-containing saline solution.
T/C was calculated in the same manner as in above b (i).

The subject of series [3] is HeLa S3 cells. The series is described as follows: MIC value against HeLa S3 cells (microplate method). Particulars: Homo sapiens, 96 h, 2×10^4 cells/ml, 4 days, Giemsa staining. It counts as cell-based. The text has this:
(§1) a. MIC value against HeLa S3 cells and Ehrlich cells (microplate method) Number of cells: 2×10^4 cells/ml Culture medium: Eagle's MEM+20% calf embryonic serum Culture time: 4 days Judgement: Giemsa staining

The test system of series [4] is Ehrlich cells. The series is described as follows: MIC value against Ehrlich cells (microplate method). Particulars: 96 h, 2×10^4 cells/ml, 4 days, Giemsa staining. It counts as cell-based.
Description: as §1

For series [5], the system named is B-16 melanoma cells. Description: Effect on B-16 melanoma: subcutaneous inoculation, mean tumor weight. It counts as in vivo, BDF1-strain mice. The procedure: B-16 melanoma cells (1×10^6 cells/head) were inoculated subcutaneously at the right armpit region into BDF1 -strain mice (male, 7 weeks old, each group consisting of 8 mice), and after 24 hours, the oral administration or subcutaneous administration at the […] […] The test drug was used in the form of a suspension or solution in a 0.3% carboxymethyl cellulose-containing saline solution or dimethylsulfoxide-propylene glycol (1:1) mixture. T/C was calculated in the same manner as in above b(ii).

The subject of series [6] is P-388 ascites cells. Description: Effect on P-388 leukemia (ii): subcutaneous inoculation, mean tumor weight. To be noted: oral, once a day for 7 days, 11th day. It counts as in vivo, BDF1-strain mice. On the procedure: (ii) P-388 ascites cells (1×10^6 cells/head) were inoculated subcutaneously at the right armpit into BDF1 -strain mice (male, 7 weeks old, each group consisting of 8 mice), and after 24 hours, the oral administration of a test drug was started, and effected once a day for 7 days. The effect thereof was judged from the mean weight of the tumor at the 11th day. The test drug was used in the form of a suspension or solution in a 0.3% carboxymethyl cellulose-containing saline solution or a dimethylsulfoxide-propylene glycolphosphate buffer (1:2:1) mixture. T/C was calculated in the same manner as in above b(ii).

Series [7] deals with Ehrlich ascites carcinoma cells. Description: Effect on Ehrlich carcinoma (iii): subcutaneous inoculation at right armpit, mean tumor weight. It counts as in vivo, ICR-strain mice. Particulars: once a day for 7 days, 14th day. On the procedure:
(iii) Ehrlich ascites carcinoma cells (4×10^6 cells/head) were inoculated subcutaneously at the right armpit region into ICR-strain mice (female, 7 weeks old, each group consisting of 6 or 7 mice), and after 24 hours, the oral administration or subcutaneous administration at the dorsal region of a test drug was started, and effected once a day for 7 days. The effect thereof was judged from the mean weight of the tumor on the 14th day. The test drug was used in the form of a solution or suspension in a saline solution or a 0.3% carboxymethyl cellulose-containing saline solution.
T/C was calculated in the same manner as in above (ii).

For series [8], the system named is Sarcoma 180 ascites cells. The series is described as follows: Effect on Sarcoma 180 carcinoma: intraperitoneal inoculation, mean survival days. It counts as in vivo, ICR-strain mice. Particulars: once a day for 7 days; for Survival Ratio in Days Shown in Parenthesis: 32 days. On the procedure:
Sarcoma 180 ascites cells (1×10^6 cells/head) were inocualted intraperitoneally into ICR-strain mice (female, 6 weeks old, each group consisting of 4 or 5 mice), and after 24 hours, the intraperitoneal administration of a test drug was started, and effected once a day for 7 days. The effect thereof was judged from the mean survival days. The test drug was used in the form of a solution or suspension in a saline solution or a 0.3% carboxymethyl cellulose-containing saline solution. [formula]

Series [9] relates to Ehrlich ascites carcinoma cells. The series is described as follows: Effect on Ehrlich carcinoma (ii): subcutaneous inoculation at inguinal region, mean tumor weight. It counts as in vivo, ICR-strain mice. Particulars: once a day for 5 days. The procedure: (ii) Ehrlich ascites carcinoma cells (4×10^6 cells/head) were inoculated subcutaneously at the inguinal region into ICR-strain mice (female, 6 to 7 weeks old, each group consisting of 5 or 4 mice), and after 24 hours, the intraperitaneal or oral administration of a test drug was started and effected once a day for 5 days. The effect thereof was judged from the mean weight of tumor on the 13th or 15th day, respectively.
The test drug was used in the form of a solution or suspension in a saline solution or a 0.3% carboxymethyl cellulose-containing saline solution. [formula]

For series [10] the test system is unchanged. The series is described as follows: Effect on Ehrlich carcinoma (i): intraperitoneal inoculation, mean survival days. It counts as in vivo, ICR-strain mice. Particulars: Mus musculus, ip, read-out: T/C (mean survival days). On the procedure: (i) Ehrlich ascites carcinoma cells (1×10^6 cells/head) were inoculated intraperitoneally into ICR-strain mice (female, 6 to 7 weeks old, each group consisting of 5 or 4 mice), and after 24 hours, the […] The effect thereof was judged from the mean survival days.
The test drugs were used in the form of a solution or suspension in a saline solution or a 0.3% carboxymethyl cellulose-containing saline solution. [formula]

The subject of series [11] is Lewis lung carcinoma cells. Description: Effect on Lewis lung carcinoma: subcutaneous inoculation, average tumor weight. It counts as in vivo, BDF1-strain mice. To be noted: oral, once a day for 7 days, 21st day. The procedure:
Lewis lung carcinoma cells (1×10^6 cells/head) were inoculated subcutaneously at the right armpit region into BDF1 -strain mice (male, 6 weeks old, each group consisting of 5 mice) and after 24 hours, the oral administration of a test drug was started and effected once a day for 7 days. The effect thereof was judged from the average weight of tumor on the 21st day. The test drug was used in the form of a suspension in a 0.3% carboxymethyl cellulose-containing saline solution. T/C was calculated in the same manner as in above b(ii).

Where [12] appears, read: 100 mg/kg, orally, 7 administrations, 18th day.
Setting [13] is: 25 mg/kg, intraperitoneally, judgement day 13.

≈ marks a conversion by molar mass, not a printed value. Like-named read-outs stand apart in the source and are kept apart here.

For the compound `Nc1ccc(Nc2ccc(CN3CCN(Cc4ccccc4)C(=O)C3=O)cc2)nc1` [Compound 4], the 50% lethal dose (LD50) – broadly, the dose expected to kill half of the subjects tested – at 168 h in series [1] was above 300 mg/kg. Besides, the “T/C (mean survival days)” value is reported as 164.3% in series [2] (50 mg/kg, 9 administrations); 161.9% in series [2] (100 mg/kg, 3 administrations); above 221% in series [8] (10 mg/kg); above 221% in series [8] (20 mg/kg). For the same compound, the minimal inhibitory concentration (MIC) in series [3] and in series [4] was below 0.05 µg/mL in each case. For the same compound, the “T/C (mean tumor weight)” value stood at 38% in series [5] (25 mg/kg, subcutaneously, 7 administrations, 19th day); 60% in series [5] (50 mg/kg, orally, 9 administrations, 21st day); 58% in series [5] (setting [12]); 71% in series [5] (50* mg/kg, orally, 7 administrations, 19th day, in dimethylsulfoxide-propylene glycol (1:1)); 79% in series [6] (50 mg/kg); 82% in [7] (50 mg/kg, orally). Besides, the “T/C (mean tumor weight)” value in series [7] (50 mg/kg, subcutaneously) was determined as 15%; in [7] (100 mg/kg, orally), 65%; in series [9] (250 mg/kg, orally, judgement day 15), 56.9%. The “Survival Ratio in Days Shown in Parenthesis” value in series [8] (10 mg/kg) and in series [8] (20 mg/kg) was 4/5 throughout.
As to `CCCCCCN1CCN(Cc2ccc(N(CC)CC)cc2)C(=O)C1=O` [Compound 26], the minimum inhibitory concentration (MIC) in series [3] and in series [4] was 3.13 µg/mL (≈ 8.71 µM) each time. The response vs control in vivo at 40 mg/kg in series [10] (168 h, 40 mg/kg, once a day for 7 days) was found to be 157%. Also, the “T/C (mean tumor weight)” value in series [9] (6.25 mg/kg, intraperitoneally, judgement day 13) is listed as 64%; in series [9] (12.5 mg/kg, intraperitoneally, judgement day 13) it was 67%; in series [9] (setting [13]), 61%.
With `CCN(CC)c1ccc(CN2CCN(CCN)C(=O)C2=O)cc1` [Compound 37], the MIC in series [3] and in [4] was 25 µg/mL (≈ 78.5 µM) each time. The “T/C (mean tumor weight)” value in series [9] (setting [13]) came to 54%; in series [9] (50 mg/kg, intraperitoneally, judgement day 13), 52%; in [9] (100 mg/kg, intraperitoneally, judgement day 13) it was 65%.
For `Nc1ccc(Nc2ccc(CN3CCN(Cc4ccccc4)C(=O)C3=O)cc2)nc1Cl` [Compound 41], the LD50 at 168 h in [1] was above 200 mg/kg. Moreover, the “T/C (mean survival days)” value in series [2] (20 mg/kg, 7 administrations) is 236%; in series [8] (10 mg/kg) it was above 193%; in series [8] (20 mg/kg), above 218%. In addition, the MIC in series [3] and in [4] was below 0.05 µg/mL in each case. Further, the “T/C (mean tumor weight)” value in [5] (50 mg/kg, subcutaneously, 3 administrations, 19th day) amounted to 37%; in series [5] (setting [12]) it was 88%; in series [5] (100* mg/kg, orally, 7 administrations, 19th day, in dimethylsulfoxide-propylene glycol (1:1)) it was 43%; in [6] (200 mg/kg) it was 67%; in series [7] (50 mg/kg, orally), 78%; in series [7] (50 mg/kg, subcutaneously) it was 54%. Moreover, in [10] (96 h, 50* mg/kg, once a day for 4 days), the response vs control in vivo at 50 mg/kg was determined as 195%. For the same compound, the “T/C (average tumor weight)” value in series [11] (100 mg/kg) is recorded as 65.9%; in series [11] (200 mg/kg), 43.4%. For the same compound, the figures for the “Survival Ratio in Days Shown in Parenthesis” value in [8] (10 mg/kg) and in series [8] (20 mg/kg) were 1/5 and 4/5, respectively.
As for `Cc1nc(Nc2ccc(CN3CCN(Cc4ccccc4)C(=O)C3=O)cc2)ccc1N` [Compound 42], the LD50 at 168 h in series [1] (intraperitoneal, once, male mice, observed for 7 days) is above 200 mg/kg. Moreover, in [2] (50 mg/kg, 7 administrations), the “T/C (mean survival days)” value is 148%. Besides, the minimum inhibitory concentration (MIC) in series [3] and in [4] was below 0.05 µg/mL each time. Further, the response vs control in vivo at 50 mg/kg in series [10] (168 h, 50 mg/kg, once a day for 7 days) came to 149%. Moreover, the “T/C (mean tumor weight)” value in series [7] (100 mg/kg, orally) was determined as 54%.

The values above are taken from patent publication US4477664A, “Novel 1-(4-piperidiniobenzyl)-2,3-dioxopiperazine derivatives or acid addition salts thereof” (Toyama Chemical Co., Ltd., priority 1979, dated 1984).
